Legend:
[1] = DRUGMATRIX: Phosphodiesterase PDE3 enzyme inhibition (substrate: [3H]cAMP + cAMP); type: tissue-based, Homo sapiens; conditions: platelet, Not Active = under 50% inhibition at 10 µM
[2] = target: T1, Cysteinyl leukotriene receptor 1 (Homo sapiens, UniProt Q9Y271); type: cell membranes, CHO-K1, Membrane; also: in other assays of this panel Not Active means under 50% inhibition at 10 µM
T1 sequence (Q9Y271 whole entry): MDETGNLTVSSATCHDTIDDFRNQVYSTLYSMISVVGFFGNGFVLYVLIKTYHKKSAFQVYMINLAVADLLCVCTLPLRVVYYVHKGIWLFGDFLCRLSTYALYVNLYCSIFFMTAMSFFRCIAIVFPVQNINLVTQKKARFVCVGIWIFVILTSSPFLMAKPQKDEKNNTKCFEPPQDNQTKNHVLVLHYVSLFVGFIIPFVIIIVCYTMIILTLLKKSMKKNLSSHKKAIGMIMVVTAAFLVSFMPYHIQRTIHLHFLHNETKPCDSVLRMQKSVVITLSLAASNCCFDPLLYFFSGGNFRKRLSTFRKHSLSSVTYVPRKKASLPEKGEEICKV

Cytochrome P450 1A2 = target: T2, Cytochrome P450 1A2 (Homo sapiens, UniProt P05177); conditions: bti-tn-5b1-4; also: in other assays of this panel Not Active means under 50% inhibition at 10 µM
T2 sequence (P05177 whole entry): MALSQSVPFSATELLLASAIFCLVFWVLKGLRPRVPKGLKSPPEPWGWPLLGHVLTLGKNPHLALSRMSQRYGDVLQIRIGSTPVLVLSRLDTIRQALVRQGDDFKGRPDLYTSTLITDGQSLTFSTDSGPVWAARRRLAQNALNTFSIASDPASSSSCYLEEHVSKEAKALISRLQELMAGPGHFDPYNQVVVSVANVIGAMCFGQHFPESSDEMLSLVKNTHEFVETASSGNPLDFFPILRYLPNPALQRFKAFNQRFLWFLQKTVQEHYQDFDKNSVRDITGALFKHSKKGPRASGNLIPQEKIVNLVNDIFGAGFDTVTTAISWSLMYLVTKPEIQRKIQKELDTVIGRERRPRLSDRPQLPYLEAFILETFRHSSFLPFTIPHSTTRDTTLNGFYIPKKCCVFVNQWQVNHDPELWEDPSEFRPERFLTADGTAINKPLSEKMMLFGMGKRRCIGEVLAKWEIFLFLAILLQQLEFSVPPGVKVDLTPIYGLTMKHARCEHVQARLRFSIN

Melanocortin receptor 5 = Melanocortin receptor 5 (Homo sapiens, UniProt P33032); type: cell membranes, Membrane; conditions: hek293; also: in other assays of this panel Not Active means under 50% inhibition at 10 µM
Adenosine receptor A1 = target: T3, Adenosine receptor A1 (Homo sapiens, UniProt P30542); type: cell membranes, Membrane; conditions: cho;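 also: radioligand binding assay at the adenosine A1 receptor, with DPCPX serving as the labelled ligand; in other assays of this panel Not Active means under 50% inhibition at 10 µM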
T3 sequence (P30542 whole entry): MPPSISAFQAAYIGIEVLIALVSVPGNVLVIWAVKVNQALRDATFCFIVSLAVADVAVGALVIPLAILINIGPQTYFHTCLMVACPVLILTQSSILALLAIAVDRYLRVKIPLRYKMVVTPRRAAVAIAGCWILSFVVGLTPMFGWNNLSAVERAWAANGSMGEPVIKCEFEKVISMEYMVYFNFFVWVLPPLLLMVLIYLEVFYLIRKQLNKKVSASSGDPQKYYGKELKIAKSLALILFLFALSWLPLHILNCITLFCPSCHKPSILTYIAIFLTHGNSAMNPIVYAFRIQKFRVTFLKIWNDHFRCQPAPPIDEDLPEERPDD

Thromboxane-A synthase = target: T4, Thromboxane-A synthase (Homo sapiens, UniProt P24557); assay: biochemical; type: tissue-based, Platelet
T4 sequence (P24557 whole entry): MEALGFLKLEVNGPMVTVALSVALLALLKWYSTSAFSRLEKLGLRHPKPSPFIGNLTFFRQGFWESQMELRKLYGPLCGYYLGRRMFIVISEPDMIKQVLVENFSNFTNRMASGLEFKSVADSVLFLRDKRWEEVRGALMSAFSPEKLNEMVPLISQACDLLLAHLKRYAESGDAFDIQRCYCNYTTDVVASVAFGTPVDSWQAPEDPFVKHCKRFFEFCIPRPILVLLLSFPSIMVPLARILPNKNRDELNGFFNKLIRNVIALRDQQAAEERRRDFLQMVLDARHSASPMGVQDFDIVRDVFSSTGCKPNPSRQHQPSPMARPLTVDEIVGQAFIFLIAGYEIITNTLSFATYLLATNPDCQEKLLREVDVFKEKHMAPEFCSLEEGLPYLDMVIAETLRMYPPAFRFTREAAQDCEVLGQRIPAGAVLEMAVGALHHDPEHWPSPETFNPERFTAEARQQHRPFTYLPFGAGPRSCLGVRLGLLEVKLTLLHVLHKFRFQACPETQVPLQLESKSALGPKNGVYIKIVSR

[3] = target: C-C chemokine receptor type 2 (Homo sapiens, UniProt P41597); type: cell membranes, CHO-K1, Membrane; conditions: cho-k1; also: in other assays of this panel Not Active means under 50% inhibition at 10 µM
[4] = target: Matrix metalloproteinase-9 (Homo sapiens, UniProt P14780); assay: biochemical; type: cell-based
[5] = DRUGMATRIX: Platelet-Derived Growth Factor (PDGF) radioligand binding (ligand: [125I] PDGF); type: cell-based; conditions: nih3t3; Not Active = under 50% inhibition at 10 µM
[6] = target: Sodium-dependent noradrenaline transporter (Homo sapiens, UniProt P23975); assay: DRUGMATRIX: Norepinephrine Transporter radioligand binding (ligand: [125I] RTI-55); type: cell membranes, MDCK, Membrane; conditions: Not Active = under 50% inhibition at 10 µM
Sodium-dependent noradrenaline transporter, sequence (P23975 whole entry): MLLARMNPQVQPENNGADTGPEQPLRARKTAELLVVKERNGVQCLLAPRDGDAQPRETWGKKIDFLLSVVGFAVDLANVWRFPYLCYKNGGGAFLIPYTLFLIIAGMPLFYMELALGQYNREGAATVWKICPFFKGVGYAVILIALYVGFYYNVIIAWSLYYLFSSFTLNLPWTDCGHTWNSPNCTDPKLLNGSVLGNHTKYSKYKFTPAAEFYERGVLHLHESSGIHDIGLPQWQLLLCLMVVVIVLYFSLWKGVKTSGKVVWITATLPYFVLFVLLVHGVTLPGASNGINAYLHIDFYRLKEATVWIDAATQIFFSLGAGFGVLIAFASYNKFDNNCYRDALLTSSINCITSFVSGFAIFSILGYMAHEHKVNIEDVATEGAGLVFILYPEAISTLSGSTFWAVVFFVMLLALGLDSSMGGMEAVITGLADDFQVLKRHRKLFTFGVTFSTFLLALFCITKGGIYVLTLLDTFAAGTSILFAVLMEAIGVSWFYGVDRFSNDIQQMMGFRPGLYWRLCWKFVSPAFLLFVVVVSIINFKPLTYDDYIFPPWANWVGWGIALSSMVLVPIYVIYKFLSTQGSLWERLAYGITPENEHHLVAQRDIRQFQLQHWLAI

C-C chemokine receptor type 2, sequence (P41597 whole entry): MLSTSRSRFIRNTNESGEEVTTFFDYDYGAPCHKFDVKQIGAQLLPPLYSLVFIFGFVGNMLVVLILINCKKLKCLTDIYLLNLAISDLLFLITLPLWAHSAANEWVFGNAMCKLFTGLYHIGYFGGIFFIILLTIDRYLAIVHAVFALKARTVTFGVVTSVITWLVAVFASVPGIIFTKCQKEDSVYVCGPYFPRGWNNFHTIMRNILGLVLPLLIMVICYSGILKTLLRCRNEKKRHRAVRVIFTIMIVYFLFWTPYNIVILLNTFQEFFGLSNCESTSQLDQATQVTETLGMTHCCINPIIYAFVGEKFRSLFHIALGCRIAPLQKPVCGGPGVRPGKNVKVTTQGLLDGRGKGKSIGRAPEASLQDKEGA
Matrix metalloproteinase-9, sequence (P14780 whole entry): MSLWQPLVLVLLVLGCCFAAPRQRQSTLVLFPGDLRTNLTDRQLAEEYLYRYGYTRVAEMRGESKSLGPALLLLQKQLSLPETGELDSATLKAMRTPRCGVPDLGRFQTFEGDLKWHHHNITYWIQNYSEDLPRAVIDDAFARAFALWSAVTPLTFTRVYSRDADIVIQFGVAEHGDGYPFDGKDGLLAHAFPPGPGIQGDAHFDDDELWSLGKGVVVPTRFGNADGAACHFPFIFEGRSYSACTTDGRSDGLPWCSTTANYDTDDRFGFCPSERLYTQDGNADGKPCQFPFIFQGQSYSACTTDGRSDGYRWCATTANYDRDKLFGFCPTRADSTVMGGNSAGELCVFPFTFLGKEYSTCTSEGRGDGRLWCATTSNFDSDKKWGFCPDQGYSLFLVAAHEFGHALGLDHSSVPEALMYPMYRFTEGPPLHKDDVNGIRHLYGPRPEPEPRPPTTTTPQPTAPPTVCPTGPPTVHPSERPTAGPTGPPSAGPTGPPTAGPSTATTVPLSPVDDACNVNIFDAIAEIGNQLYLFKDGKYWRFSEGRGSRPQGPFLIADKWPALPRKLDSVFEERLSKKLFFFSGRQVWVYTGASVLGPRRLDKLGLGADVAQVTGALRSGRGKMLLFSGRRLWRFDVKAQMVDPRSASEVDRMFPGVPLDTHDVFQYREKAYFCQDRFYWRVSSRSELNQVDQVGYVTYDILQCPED
Melanocortin receptor 5, sequence (P33032 whole entry): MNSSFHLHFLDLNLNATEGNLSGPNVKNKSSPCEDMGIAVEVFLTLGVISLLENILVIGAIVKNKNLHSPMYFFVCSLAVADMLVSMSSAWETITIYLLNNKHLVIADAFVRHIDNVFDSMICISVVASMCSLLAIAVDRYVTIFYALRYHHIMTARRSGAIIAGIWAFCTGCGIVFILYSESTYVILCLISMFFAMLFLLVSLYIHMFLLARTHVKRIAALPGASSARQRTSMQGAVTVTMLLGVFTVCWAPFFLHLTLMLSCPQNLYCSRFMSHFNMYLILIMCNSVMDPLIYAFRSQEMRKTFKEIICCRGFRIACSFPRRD

Row | Structure (SMILES) | IC50 [1] | Ki [1] | IC50 ([2]; cho-k1) | IC50 (Cytochrome P450 1A2) | Ki (Cytochrome P450 1A2) | IC50 (Melanocortin receptor 5) | IC50 (Adenosine receptor A1) | IC50 (Thromboxane-A synthase; platelet) | IC50 [3] | IC50 [4] | IC50 [5] | Ki [5] | IC50 ([6]; mdck) | IC50 ([2]; read-out: IC50) [µM] | Ki ([2]; read-out: Ki) [µM] | IC50 (Thromboxane-A synthase; read-out: IC50) [µM] | IC50 ([6]; read-out: IC50) [µM] | Ki ([6]; read-out: Ki) [µM] | IC50 ([1]; read-out: IC50) [µM]
1 | CC1=C(CC(=O)O)c2cc(F)ccc2/C1=C\c1ccc([S+](C)[O-])cc1 (centres undefined) | Not Active | Not Active | Not Active | Not Active | Not Active | Not Active | Not Active | Not Active | Not Active | Not Active | Not Active | Not Active | Not Active |  |  |  |  |  | 
2 | N[C@H](CSC(=S)NCc1ccccc1)C(=O)O | Not Active | Not Active | Not Active | Not Active | Not Active | Not Active | Not Active | Not Active | Not Active | Not Active | Not Active | Not Active | Not Active |  |  |  |  |  | 
3 | CC(=O)N[C@@H]1[C@H](Oc2c3cc4cc2Oc2ccc(cc2Cl)[C@@H](O[C@@H]2O[C@@H](CO)[C@@H](O)[C@H](O)[C@@H]2NC(C)=O)[C@@H]2NC(=O)[C@H](NC(=O)[C@@H]4NC(=O)[C@H]4NC(=O)[C@@H](Cc5ccc(c(Cl)c5)O3)NC(=O)[C@H](N)c3ccc(O)c(c3)Oc3cc(O)cc4c3)c3ccc(O)c(c3)-c3c(O[C@H]4O[C@H](CO)[C@@H](O)[C@@H](O)[C@@H]4O)cc(O)cc3[C@@H](C(=O)O)NC2=O)O[C@@H](CO)[C@@H](O)[C@@H]1O | Not Active | Not Active | Not Active | Not Active | Not Active | Not Active | Not Active | Not Active | Not Active | Not Active | Not Active | Not Active | Not Active |  |  |  |  |  | 
4 | Clc1ccc2c(c1)C(N1CCNCC1)=Nc1ccccc1O2 [AMOXAPINE] |  |  | Not Active | Not Active | Not Active | Not Active | Not Active | Not Active | Not Active | Not Active |  |  |  |  |  |  |  |  | 
5 | COc1cc2c(c(OC)c1OC)-c1ccc(OC)c(=O)cc1[C@@H](NC(C)=O)CC2 [COLCHICINE] |  |  | Not Active |  |  | Not Active | Not Active | Not Active | Not Active | Not Active |  |  | Not Active |  |  |  |  |  | 
6 | CN1CCC(=C2c3ccccc3C=Cc3ccccc32)CC1 [CYPROHEPTADINE] |  |  | Not Active | Not Active | Not Active | Not Active | Not Active | Not Active | Not Active | Not Active |  |  |  |  |  |  |  |  | 
7 | CC/C(=C(/CC)c1ccc(O)cc1)c1ccc(O)cc1 [DIETHYLSTILBESTROL] |  |  |  | Not Active | Not Active | Not Active |  |  | Not Active | Not Active |  |  |  | 17.7 | 8.87 | 4.36 |  |  | 
8 | CC(=O)N1CCN(c2ccc(OCC3COC(Cn4ccnc4)(c4ccc(Cl)cc4Cl)O3)cc2)CC1 (centres undefined) [KETOCONAZOLE] | Not Active | Not Active | Not Active | Not Active | Not Active | Not Active | Not Active |  | Not Active | Not Active | Not Active | Not Active |  |  |  | 2.17 | 24.2 | 24 | 
9 | C=CCN1CC[C@]23c4c5ccc(O)c4O[C@H]2C(=O)CC[C@@]3(O)[C@H]1C5 [NALOXONE] |  |  | Not Active |  |  | Not Active | Not Active | Not Active | Not Active | Not Active |  |  | Not Active |  |  |  |  |  | 
10 | COCCOC(=O)C1=C(C)NC(C)=C(C(=O)OC(C)C)C1c1cccc([N+](=O)[O-])c1 (centres undefined) [NIMODIPINE] | Not Active | Not Active | Not Active |  |  | Not Active | Not Active | Not Active | Not Active | Not Active | Not Active | Not Active | Not Active |  |  |  |  |  | 
11 | CC(C)NCC(O)COc1cccc2ccccc12 (centres undefined) [PROPRANOLOL] |  |  | Not Active |  |  | Not Active | Not Active | Not Active | Not Active | Not Active |  |  |  |  |  |  |  |  | 
12 | COCCCOc1ccnc(C[S+]([O-])c2nc3ccccc3[nH]2)c1C (centres undefined) [RABEPRAZOLE] |  |  | Not Active | Not Active | Not Active | Not Active | Not Active | Not Active | Not Active | Not Active | Not Active | Not Active | Not Active |  |  |  |  |  | 2.29
13 | O=C(c1ccc(OCCN2CCCCC2)cc1)c1c(-c2ccc(O)cc2)sc2cc(O)ccc12 [RALOXIFENE] | Not Active | Not Active | Not Active | Not Active | Not Active | Not Active | Not Active | Not Active | Not Active | Not Active | Not Active | Not Active |  |  |  |  |  |  | 
14 | CNC(=C[N+](=O)[O-])NCCSCc1ccc(CN(C)C)o1 [RANITIDINE] | Not Active | Not Active | Not Active | Not Active | Not Active | Not Active | Not Active | Not Active | Not Active | Not Active | Not Active | Not Active | Not Active |  |  |  |  |  | 
15 | CC(C)c1nc(CN(C)C(=O)N[C@H](C(=O)N[C@@H](Cc2ccccc2)C[C@H](O)[C@H](Cc2ccccc2)NC(=O)OCc2cncs2)C(C)C)cs1 [RITONAVIR] | Not Active | Not Active | Not Active |  |  | Not Active | Not Active |  | Not Active | Not Active | Not Active | Not Active | Not Active |  |  |  |  |  | 
16 | CC(C)CC(N(C)C)C1(c2ccc(Cl)cc2)CCC1 (centres undefined) [SIBUTRAMINE] | Not Active | Not Active | Not Active | Not Active | Not Active | Not Active | Not Active | Not Active | Not Active | Not Active | Not Active | Not Active |  |  |  |  |  |  | 
17 | CC(C)(C)c1ccc(C(O)CCCN2CCC(C(O)(c3ccccc3)c3ccccc3)CC2)cc1 (centres undefined) [TERFENADINE] | Not Active | Not Active | Not Active | Not Active | Not Active | Not Active | Not Active | Not Active | Not Active | Not Active | Not Active | Not Active |  |  |  |  |  |  | 
